Test results from patent US20030124655A1, “Receptor protein specifically recognizing bacterial dna” (priority 2000, published 2003).
Like-named read-outs stand apart in the source and are kept apart here.

Columns and labels:
[1] = cited from earlier work
IRAK = IRAK activity in macrophages, in vitro kinase assay; format: cell-based, mouse
Protocol: (§1) As described in a reference (Immunity 11, 115-122, 1999), the JNK activity and IRAK activity were measured by in vitro kinase assay using GST-c-Jun fusion protein (GST-c-Jun) as a substrate (top figures of FIG. 10 and FIG. 11; GST-c-Jun, Auto).
(§2) The cell lysates were separated by SDS-polyacrylamide gel electrophoresis to transfer them onto a nitrocellulose membrane and blotted the membrane with anti-JNK antibody (Santa Cruz) or anti-IRAK antibody (Transduction Laboratories) to visualize using an enhanced chemiluminescent system (Dupont) (bottom figures of FIG. 10 and FIG. 11; WB).

B cells = assay: MHC class II expression on the surface of B cells; format: cell-based, mouse; details: B cells from wild-type mice
spleen cells = assay: Spleen cell proliferation, [3H]-timidine uptake; format: cell-based, mouse
[2] = test system: dendritic cells derived from bone marrow; assay: IL-12 p40 production in bone marrow-derived dendritic cells (ELISA); format: cell-based, mouse; details: dendritic cells from wild-type mice; 0.1 μM, 2 days
NF-κB = NF-κB DNA-binding activity in peritoneal macrophages (gel shift); details: 1.0 μM
Protocol: 2 ml of 4% thioglycolic acid medium (DIFCO) was injected to each peritoneum of wild-type mice and TLR9 knockout mice (TLR9^−/−), peritoneal exudation cells were isolated from peritonea from each mouse after 3 days, the cells were cultured in RPMI1640 medium to which 10% of fetal bovine serum (GIBCO) was added at 37° C. for 2 hours, and remove the unattached cells by washing with ice-chilled Hank's buffered salt solution (HBSS; GIBCO), and the attached cells were used as peritoneal macrophages in the following experiments.

JNK = JNK activity in macrophages, in vitro kinase assay; format: cell-based, mouse
Protocol: as §1, §2

[3] = macrophages from TLR9 knockout mice
[4] = macrophages from wild-type mice

## TCC-ATG-ACG-TTC-CTG-ATG-CT (DNA TCCATGACGTTCCTGATGCT; listed as DNA, chemistry not given here) [CpG ODN, ID No: 5; from TIB MOLBIOL]
[1]; MyD88 knockout mice
  response to CpG ODN: do not show response
[1]; TLR2 knockout mice
  response to CpG ODN: show normal response
[1]; TLR4 knockout mice
  response to CpG ODN: show normal response
IRAK; [3]
  IRAK activation: does not activate
IRAK; [4]
  IRAK activation: activates
B cells
  amount of expressing MHC class II on the surface of B cells: increased
Spleen cells; spleen cells from TLR9 knockout mice, any concentration
  cell proliferating reaction ([3H]-timidine uptake): did not show any cell proliferating reaction
Spleen cells; spleen cells from wild-type mice
  cell proliferating reaction ([3H]-timidine uptake): promote cell proliferating reactions depending on the amount
[2]
  IL-12 p40 production: produced IL-12
NF-κB; [3]
  NF-κB DNA-binding activity: did not increase NF-κB DNA-binding activity
NF-κB; [4]
  NF-κB DNA-binding activity: increased NF-κB DNA-binding activity
JNK; [3]
  JNK activation: does not activate
JNK; [4]
  JNK activation: activates
